Results published in paper PMC9786170, “The Pharmacological Potential of Novel Melittin Variants from the Honeybee and Solitary Bees against Inflammation and Cancer” (Toxins, 2022).
Entries after “also recorded” stand apart in the source; their conditions may differ.

How the values were obtained:
[1] = system: MDA-MB-231 cells; experiment: Proliferation assay (crystal violet) in MDA-MB-231 cells; type: cell-based, human; conditions: n = 2; for anti-proliferative activity, 72 h: MDA-MB-231, 25 µg/mL, crystal violet
Protocol: Figure 5 Anti-proliferative and apoptotic effect of melittin derivates on the triple-negative breast cancer cell line MDA-MB-231. (A) For the proliferation assay, cells were grown in low density and were treated after 24 h with melittin peptides at a concentration of 25 µg/mL for 72 h. Cells were stained with crystal violet solution. The amount of DNA-bound crystal violet was detected by absorbance measurements. (B) Melt3, 4, and Xac4, which are non-toxic to healthy cells, were further used to test effects on proliferation at 24 h (left) and 48 h (right) at different concentrations. (C) The effects on apoptosis were detected by flow cytometry after 24 h (left), 48 h (middle), and 72 h (right) of treatment. The number of apoptotic cells was determined by staining with propidium iodide (PI). Data are expressed as mean ± SEM. n = 2, * p ≤ 0.05 versus control. Sts, staurosporin 1 µM.
HMECs (2000 cells/well) were seeded into collagen-coated 96-well plates and grown for 24 h. Then, they were treated with melittin peptides. Treated cells were cultured for 72 h, whereas untreated control cells, directly after 24 h, were fixed with a methanol-ethanol (2:1) solution and washed with PBS before they were stained using a crystal violet solution (20% methanol). Similarly, at the end of incubation time, cells treated with melittin peptides were fixed, stained, and unbound crystal violet was removed by washing with distilled water. Finally, cells were left to air dry, and DNA-bound crystal violet was dissolved using an acetic acid solution (20%, Sigma-Aldrich, Steinheim, Germany). Absorbance was measured at 590 nm using a plate reader (Infinite F200Pro, Tecan, Männedorf, Switzerland). The proliferation percentage was calculated by normalizing to the untreated control (24 h) and compared to the DMSO control (0.03%) of 72 h incubation. Similarly, MDA-MB-231 cells (6000 cells/well) were seeded into 96-well plates, and their proliferation ability under treatment conditions was tested as described above.

[2] = system: HEK293T cells; experiment: Cell viability assay (WST-8/Orangu formazan) in HEK293T cells; type: cell-based, human; conditions: 25 µg/mL, 24 h, WST-8 formazan absorbance, n = 4
Protocol: (§1) Figure 1 Toxicity characterization of cells treated with melittin peptides. (A,B) For the viability assay, RAW264.7 (A) or HEK293T (B) cells were treated with bee venom compounds in the indicated concentrations for 24 h. Cells were incubated with WST-8 and the formed formazan was detected by absorbance measurements. (C) For the proliferation assay, HMEC-1 cells were grown in low density and treated after 24 h with the indicated peptide (25 µg/mL) for 72 h. Cells were stained with crystal violet solution. The amount of DNA-bound crystal violet was detected by absorbance measurements. (D) The number of sub-diploidic cells was determined by staining with propidium iodide (PI) and quantified to assess apoptosis of HUVECs. Data are expressed as mean ± SEM. (A) n = 3, (B) n = 4, (C) n = 2–3, (D) n = 2. * p ≤ 0.05 versus control.
(§2) For assessing the cytotoxicity of all peptides, various cell types and assays were utilized. […] After incubation, absorbance was measured at a wavelength of 450 nm with a reference at 650 nm at an EnSpire 2300 Multimode Plate Reader (Perkin Elmer, Lübeck, Germany). To calculate cell viability, the absorbance of vehicle-treated cells was set to 100%, and the melittin derivates-treated samples were correlated to them.

[3] = system: non-cancer cells; experiment: Viability of non-cancer cells (RAW264.7, HEK293T, HMEC, HUVEC), overall statements; type: cell-based
From the text: First, we studied the activity of the melittin peptides on the viability of non-cancer cells. The toxicity of all melittin variants was investigated in monocyte/macrophage-like cells (RAW264.7), human embryonic kidney 293 cells (HEK293T), human microvascular endothelial cells (HMEC), and primary human umbilical vein endothelial cells (HUVECs).
as §2, with “utilized. To determine the cell viability of HEK293T and RAW246.7 cells, the Orangu^TM assay (Cell Guidance Systems Ltd., Cambridge, UK) was used, as previously described. 2 × 10^5 HEK293T or 2 × 10^5 RAW246.7 were seeded in 96-well plates.” for “utilized.”
(§3) HMECs (2000 cells/well) were seeded into collagen-coated 96-well plates and grown for 24 h. […] Absorbance was measured at 590 nm using a plate reader (Infinite F200Pro, Tecan, Männedorf, Switzerland). The proliferation percentage was calculated by normalizing to the untreated control (24 h) and compared to the DMSO control (0.03%) of 72 h incubation. […]

[4] = system: HMEC-1 cells; experiment: Proliferation assay (crystal violet) in HMEC-1 cells; type: cell-based, human; conditions: HMEC-1, 25 µg/mL, 72 h, n = 2–3
Protocol: as §1
as §3, with “h. Then, they were treated with melittin peptides.” for “h.”

melittin [Melt, reference compound]
anti-proliferative activity, 72 h [1]: exhibited anti-proliferative activity
cytotoxicity (cell viability) [2]: showed cytotoxicity
reduction of viability ([3]; Discussion, cell line not given): 90%
proliferation [4]: proliferation was hindered

xylopin [Xac4]
anti-proliferative activity, 72 h [1]: exhibited anti-proliferative activity; also recorded: anti-proliferative effects on breast cancer cells
proliferation at 24 h and 48 h, concentration range ([1]; MDA-MB-231, 24 h and 48 h, different concentrations, Melt4 effect at 10 and 25 µg/mL): trend of decreased proliferation
cytotoxicity (cell viability) [2]: showed cytotoxicity
viability of non-cancer (healthy) cells ([3]; summary statement, Figure 6): without harming healthy cells
proliferation [4]: proliferation was augmented
